Measurements as given in PubChem BioAssay AID1996.
≈ marks a conversion by molar mass, not a printed value.

Conditions: buffer; pH 7.4; 200.0 µM

Row | SMILES | solubility kinetic [µg/mL]
1 | CC(C)c1nc2cc(C(=O)NC(C)c3cnn(C)c3)ccc2o1 (stereo not given) | > 46.9
2 | S=c1[nH]cc(-c2ccc(Cl)cc2)n1Cc1ccccc1 | < 0.3
3 | O=C(c1ccc(Cl)cc1)N1CCOc2ccccc21 | 40.3 (≈ 147 µM)
4 | O=C1c2ccccc2C(=O)N1CCCn1ccnc1 | > 38.3
5 | COc1cccc(/C=C/C(=O)NCc2ccc(S(N)(=O)=O)cc2)c1 | 12.7 (≈ 36.7 µM)
6 | Cc1ccc(C)c(NS(=O)(=O)c2ccc3[nH]c(=O)[nH]c3c2)c1 | 4.8 (≈ 15.1 µM)
7 | O=C(NCc1ccccc1)c1c[nH]c2ccc(F)cc2c1=O | 9.1 (≈ 30.7 µM)
8 | O=C(CSc1nc2ccccc2c(=O)[nH]1)Nc1ccc([N+](=O)[O-])cc1 | 5 (≈ 14 µM)
9 | Cc1cccc(Cl)c1OCCCn1ccnc1.O=C(O)C(=O)O | 45.4
10 | COc1ccc(OCCNC(=O)c2ccc(C)cc2)cc1 | 36.8 (≈ 129 µM)
11 | Cn1ccnc1Sc1ccc(C(N)=O)cc1[N+](=O)[O-] | 38.7 (≈ 139 µM)
12 | CCC(NC(=O)C1CCCO1)c1ccccc1 (stereo not given) | > 35
13 | C=COC(=O)c1sc2nc(C)cc(C)c2c1N | 0.5 (≈ 2.01 µM)
14 | Cc1cc(=O)oc2cc(OCC(=O)N3CCOCC3)c(Cl)cc12 | > 50.7
15 | CN(CCc1ccccn1)Cc1ccc(Cl)c(Cl)c1 | 29.2 (≈ 98.9 µM)
16 | O=C(OCC(=O)N1CCOCC1)c1cc(=O)[nH]c2ccccc12 | > 47.4
17 | CC(=O)c1sccc1NC(=O)c1ccccc1C(=O)O | > 43.4
18 | Cc1ccc(OCCn2cnc3c2c(=O)n(C)c(=O)n3C)cc1 | 6.3 (≈ 20 µM)
19 | O=C1COc2ccc(N3C(=O)c4ccccc4C3=O)cc2N1 | 1.9 (≈ 6.46 µM)
20 | O=C(NCCN1CCCCC1)c1ccc(/C=N/O)nc1 | 40.7 (≈ 147 µM)
21 | CC(=O)N1CCN(CC(=O)Nc2cc([N+](=O)[O-])ccc2Cl)CC1 | 43.4 (≈ 127 µM)
22 | S=C(NCc1ccco1)Nc1ccc(Cl)cn1 | 4.1 (≈ 15.3 µM)
23 | O=C(CCCc1nc(-c2ccc(Cl)cc2)no1)NC1CCCCC1 | 2.1 (≈ 6.04 µM)
24 | Cc1ccc(-c2cc(=O)[nH]c(NCc3ccccc3)n2)cc1 | 0.3 (≈ 1.03 µM)

Row | SMILES | solubility kinetic [µg/mL]
25 | CC(=O)N1CCN(CCS(=O)(=O)c2cc(Cl)ccc2Cl)CC1 | > 54.8
26 | CCOc1ccccc1NC(=O)CN1CCCCCC1.Cl | 32.9
27 | COCCNCC(=O)N1c2ccccc2Sc2ccccc21 | 38.1 (≈ 121 µM)
28 | COc1cccc(OC)c1C(=O)Nc1cccc(S(=O)(=O)Nc2ccccc2Cl)c1 | 47.1 (≈ 105 µM)
29 | CC(=O)N(CCc1cccc(C)c1)Cc1cc2cc(C)ccc2[nH]c1=O | 1.1 (≈ 3.16 µM)
30 | COc1ccccc1C(=O)NCc1ccccn1 | > 36.3
31 | CC(=O)n1c2ccccc2c2nc3ccccc3nc21 | 1.1 (≈ 4.21 µM)
32 | Cc1cccc(S(=O)(=O)c2c(C)cc(C)[nH]c2=O)c1 | > 41.6
33 | CCOC(=O)C1(Cc2cccc(Cl)c2)CCCN(CCO)C1 (stereo not given) | 47.9 (≈ 147 µM)
34 | Cn1c(O)c(/C=C2/C=CC=N2)c(=O)[nH]c1=O | > 32.9
35 | Cc1ccc(S(=O)(=O)CCN2CCN(c3ccccc3)CC2)cc1 | 45.7 (≈ 133 µM)
36 | CC(NC(=O)COC(=O)c1ccc2c(c1)OCO2)c1ccccc1 (stereo not given) | 14.9 (≈ 45.5 µM)
37 | CCc1cccc(NC(=S)N2CCC(c3ccccc3)C2)c1 (stereo not given) | 4.6 (≈ 14.8 µM)
38 | COC(=O)C(Cc1ccc(O)cc1)NC(=O)NC12CC3CC(CC(C3)C1)C2 (stereo not given) | 27.5 (≈ 73.8 µM)
39 | Nc1ccc2nc(SCC(=O)c3ccccc3)sc2c1 | 1.8 (≈ 5.99 µM)
40 | Cn1cnc2c(N/N=C/c3cccs3)ncnc21 | > 38.7
41 | CCC1(c2ccc(-c3ccccc3)cc2)C(=O)NC(=O)NC1=O | 4.6 (≈ 14.9 µM)
42 | O=c1c2ccccc2nc2n1C(CBr)CS2 (stereo not given) | > 44.6
43 | Cc1c(C(=O)O)c(C(=O)O)nc2ccc(N3CCOCC3)cc12 | > 47.4
44 | O=C(NCc1cccnc1)c1cccs1 | > 32.7
45 | Cn1cnc2cc(NCc3ccccc3Cl)ccc21 | 34.7 (≈ 128 µM)
46 | COc1ccc(CNC(=O)CSCc2c(F)cccc2Cl)cc1 | 5.5 (≈ 15.5 µM)
47 | CCP(=O)(c1cccc([N+](=O)[O-])c1)c1cccc([N+](=O)[O-])c1 | > 48
48 | Cc1ccccc1NC(=O)C(C)N1C(=O)c2ccccc2C1=O (stereo not given) | > 46.3

Row | SMILES | solubility kinetic [µg/mL]
49 | COc1ccc(C(=O)Nc2ccccc2C(=O)Nc2ccc(C(=O)O)cc2)cc1 | > 58.6
50 | CCc1ccc(/C([O-])=C(/C(=S)NCCN2CCOCC2)[n+]2ccccc2)cc1 | 55.4 (≈ 139 µM)
51 | Cc1ccc(C(=O)NCC(=O)Nc2ncccc2C)s1 | > 43.4
52 | CCCNC(=S)N1CCC(NC(=O)c2ccc(C)cc2)CC1 | 7.5 (≈ 23.5 µM)
53 | Cc1ccccc1C(=O)NC(=S)NCc1cccnc1 | > 42.8
54 | Cc1ccc(C(=O)COC(=O)c2cnccn2)cc1C | 38.7 (≈ 143 µM)
55 | Cc1ccccc1NC(=S)NCCSc1ccc(Cl)cc1 | 3.3 (≈ 9.79 µM)
56 | O=C(CCNC(=O)c1ccco1)Nc1ccc(F)c(Cl)c1 | 17.1 (≈ 55 µM)
57 | COc1ccc(NC(=O)Nc2ccc(F)cc2)cn1 | > 39.2
58 | COc1cccc(CNC(=O)CCC(=O)N2CCOCC2)c1 | > 46
59 | Cc1ccc(N=C2NC(=O)C(CO)(CO)S2)cc1 | 27.1 (≈ 102 µM)
60 | CCOc1ccc(N2C(=O)/C(=C/c3ccc(C)o3)C(=O)NC2=S)cc1 | > 53.5
61 | CC(O)c1nc2ccccc2n1CCCCOc1ccccc1 (stereo not given) | 43.9 (≈ 141 µM)
62 | CCOC(=O)c1c(Cc2ccccc2)c[nH]c1C | 30.9 (≈ 127 µM)
63 | NC(=O)C1CCN(c2ccc(C(F)(F)F)cn2)CC1 | > 41
64 | CCOC(=O)c1[nH]cnc1C(=O)Nc1ccc(Cl)cc1 | 2.2 (≈ 7.49 µM)
65 | N#CC(C(N)=O)=C1CCCCC1 | > 24.6
66 | CCCc1cc(=O)[nH]c(SCC(=O)N2CCC(C)CC2)n1 | > 46.4
67 | O=c1oc2ccc(Cl)cc2nc1/C=C(\O)c1cccs1 | 20.9 (≈ 68.4 µM)
68 | CC(C)(C)c1ccc(-c2nc3n(c(=O)c2C#N)CCS3)cc1 | 3.5 (≈ 11.2 µM)
69 | CSC1=C(C#N)C(=O)NC(c2ccc(Cl)cc2)S1 (stereo not given) | 11.9 (≈ 40.1 µM)
70 | O=C(NCCOc1ccccc1F)Nc1ccc(Br)cc1 | 2.1 (≈ 5.95 µM)
71 | O=C(Nc1cc([N+](=O)[O-])ccc1F)c1ccc2ccccc2c1 | < 0.3
72 | COc1cccc(N2CCN(C(=S)Nc3ccc(C)cc3C)CC2)c1 | 0.6 (≈ 1.69 µM)

Row | SMILES | solubility kinetic [µg/mL]
73 | Cl.NC(CCC(=O)O)C12CC3CC(CC(C3)C1)C2 (stereo not given) | > 41.1
74 | Cc1nn(C)c(Cl)c1/C=N/OC(=O)c1ccccc1 | > 41.7
75 | Cc1ccc(OCCn2c(=S)[nH]c3ccccc32)c(C(C)C)c1 | < 0.3
76 | CC1CCCN(C(=O)CSc2nnc(-c3ccncc3)n2C)C1 (stereo not given) | > 49.7
77 | CCCCc1nc2sc3c(c2c(=O)[nH]1)CC(C)(C)OC3 | 2.3 (≈ 7.87 µM)
78 | CCCOc1ccccc1NC(=O)c1ccc([N+](=O)[O-])cc1 | 4.1 (≈ 13.7 µM)
79 | CS(=O)(=O)N(CC(=O)NC1CCCCC1)c1cccc(F)c1 | 48.1 (≈ 146 µM)
80 | O=C(Cc1ccccc1)NCc1ccccn1 | > 33.9
81 | O=C(O)CC/C(=N/NC(=O)CNC(=O)Cc1ccccc1)c1ccccc1 | > 55.1
82 | Cc1cc(C)nc(NC(=O)Nc2ccc(F)cc2F)n1 | 10.2 (≈ 36.7 µM)
83 | CCOc1ccc(-n2c(=O)c3ccccc3c3ccccc3c2=O)cc1 | 18 (≈ 52.4 µM)
84 | CN(C)Cc1c(-c2ccc(Cl)cc2)nc2ccccn12 | 40.4 (≈ 141 µM)
85 | Cc1cc(/C=C2/NC(=O)NC2=O)c(C)n1-c1ccc(C#N)cc1 | 8.4 (≈ 27.4 µM)
86 | O=C(/C=C/c1ccccc1)Oc1cccc(C(=S)N2CCOCC2)c1 | 4.6 (≈ 13 µM)
87 | O=C(/C=C/c1ccccc1)Oc1cccc2cccnc12 | 20.2 (≈ 73.4 µM)
88 | CC(C(=O)NC1CCCC1)N1C(=O)c2cccc3cccc1c23 (stereo not given) | > 46.3
89 | Cc1cc(C(=O)CN2C(=O)C(=O)N(Cc3ccccc3)C2=O)c(C)n1Cc1ccccc1 | 4 (≈ 9.31 µM)
90 | Cc1ccc(CNC(=O)COC(=O)c2ccc(S(=O)(=O)N3CCOCC3)cc2)cc1 | 6.5 (≈ 15 µM)
91 | CC12CCC(C(=O)Nc3ccncc3)(CC1O)C2(C)C (stereo not given) | > 41.2
92 | Cc1ccc(-c2c[nH]c(=S)n2-c2ccccc2)cc1 | 6 (≈ 22.5 µM)
93 | COc1ccc(/C(N)=N/OC(=O)CC2CCCCC2)cc1 | 2.8 (≈ 9.64 µM)
94 | COc1ccc(NC(=S)NC(C)c2ccncc2)cc1OC (stereo not given) | 46.7 (≈ 147 µM)
95 | Cc1nc2cc(C)c(C)cc2s1 | 0.7 (≈ 3.95 µM)
96 | CC1CC(C)CN(C(=O)CSCC(=O)O)C1 (stereo not given) | > 36.8

Row | SMILES | solubility kinetic [µg/mL]
97 | O=C1CCCN1CCCNS(=O)(=O)c1ccc(F)cc1F | > 47.8
98 | O=c1[nH]c(/C=C\c2cccc(C(F)(F)F)c2)nc(O)c1[N+](=O)[O-] | > 49.1
99 | COc1ccc(CN(C)C(=O)Cc2c[nH]c3ccccc23)cc1 | 30.4 (≈ 98.6 µM)
100 | NC(=O)C1CCCc2c1n(Cc1ccccc1)c1ccccc21 (stereo not given) | 22.3 (≈ 73.3 µM)
101 | Cc1ccc(C)c(OCCn2ccnc2)c1 | 24.7 (≈ 114 µM)
102 | COc1ccc(OCC#CCN2CCNCC2)cc1.O=C(O)C(=O)O | 52.4
103 | CC(NC(=O)Nc1ccc(Cl)cc1)c1ccccc1 (stereo not given) | 1.9 (≈ 6.92 µM)
104 | O=C(CS(=O)(=O)c1c[nH]c2ccccc12)N1CCCCCC1 | > 48.1
105 | O=C1CCN(S(=O)(=O)c2ccc(Br)cc2)CCN1 | 39.1 (≈ 117 µM)
106 | COC(=O)c1c(C)oc(C)c1S(=O)(=O)N1CCCCC1 | 34.8 (≈ 115 µM)
107 | COc1ccc(NC(=O)CCOc2ccc(C)cc2)c(OC)c1 | 29.6 (≈ 93.9 µM)
108 | Cc1ccc(S(=O)(=O)N2CCCCC2)cc1NC(=O)CCNC(=O)c1ccccc1 | 9.4 (≈ 21.9 µM)
109 | CC(OC(=O)C1CC1)C(=O)Nc1cccc(S(=O)(=O)N2CCOCC2)c1 (stereo not given) | > 57.4
110 | CCN1CCN(C(=O)COc2ccc3oc4c(c3c2)CCCC4)CC1 | > 51.4
111 | O=C(COC(=O)c1cccc(Cl)c1Cl)NC1CCCC1 | 12.8 (≈ 40.5 µM)
112 | Cc1ccccc1/C=C/C(=O)N1CCOCC1 | > 34.7
113 | O=C(Oc1c(-c2ccccc2)c(=O)n2c3c(cccc13)CC2)c1ccc(Cl)cc1 | < 0.9
114 | Cc1cc(S(=O)(=O)NCCN2CCOCC2)ccc1Cl | > 47.8
115 | CN(C)S(=O)(=O)c1cccc(NC(=O)C2CCN(S(=O)(=O)c3cccs3)CC2)c1 | 23.4 (≈ 51.1 µM)
116 | Clc1ccc2c(c1)C(N1CCNCC1)=Nc1ccccc1O2 | 34.4 (≈ 110 µM)
117 | NS(=O)(=O)c1ccc(CNC(=O)C2CCCN2C(=O)c2cccs2)cc1 (stereo not given) | > 59
118 | COc1ccccc1C(=O)c1c(C)c(CCC#N)n2ccccc12 | 40.6 (≈ 128 µM)
119 | c1ccc2c(NCCc3c[nH]c4ccccc34)c3ccccc3nc2c1 | > 50.6
120 | C=CCNc1nc2c(c(=O)[nH]c(=O)n2C)n1CCCc1ccccc1 | 5.2 (≈ 15.3 µM)
